Legend:
[1] = tested on: antibodies in sera from SARS patients (sera 1a, 1b, 2, 6, 37, 62, London, SARS-yellow, SARS-green); format: binding, human; parameters: Binding of serum 6 to linear peptides of protein X1 of SARS-CoV Urbani / Binding of serum 37 to linear peptides of protein X1 of SARS-CoV Urbani / Binding of serum 6 to looped/cyclic peptide (PEPSCAN-ELISA) / Binding of serum 37 to looped/cyclic peptide (PEPSCAN-ELISA) / Binding of serum 37 to looped/cyclic peptides of protein X1 of SARS-CoV Urbani / Binding of serum 6 to linear peptides of protein X2 / Binding of serum 37 to linear peptides of protein X2 / Binding of serum 37 to looped/cyclic peptides of protein X2 of SARS-CoV Urbani / Binding of serum 6 to linear peptides of protein M of SARS-CoV Urbani / Binding of serum 37 to linear peptides of protein M of SARS-CoV Urbani / Binding of serum 6 to looped/cyclic peptides of protein M of SARS-CoV Urbani / Binding of serum 37 to looped/cyclic peptides of protein M of SARS-CoV Urbani / Binding of serum 6 to linear peptides of protein X3 of SARS-CoV Urbani / Binding of serum 37 to linear peptides of protein X3 of SARS-CoV Urbani / Binding of serum 37 to looped/cyclic peptides of protein X3 of SARS-CoV Urbani / Binding of serum 6 to linear peptides of protein X4 of SARS-CoV Urbani / Binding of serum 37 to linear peptides of protein X4 of SARS-CoV Urbani / Binding of serum 37 to looped/cyclic peptides of protein X4 of SARS-CoV Urbani / Binding of serum 6 to linear peptides of protein X5 of SARS-CoV Urbani / Binding of serum 37 to linear peptides of protein X5 of SARS-CoV Urbani / Binding of serum 37 to looped/cyclic peptides of protein X5 of SARS-CoV Urbani / Binding of serum 6 to linear peptides of protein N of SARS-CoV Urbani / Binding of serum 37 to linear peptides of protein N of SARS-CoV Urbani / Binding of serum 6 to linear peptide (PEPSCAN-ELISA) / Binding of serum 1a to looped/cyclic peptides of protein N of SARS-CoV Urbani / Binding of serum 1b to looped/cyclic peptides of protein N of SARS-CoV Urbani / Binding of serum 2 to looped/cyclic peptides of protein N of SARS-CoV Urbani / Binding of serum 6 to looped/cyclic peptides of protein N of SARS-CoV Urbani / Binding of serum 37 to looped/cyclic peptides of protein N of SARS-CoV Urbani / Binding of serum 62 to looped/cyclic peptides of protein N of SARS-CoV Urbani / Binding of serum London to looped/cyclic peptides of protein N of SARS-CoV Urbani / Binding of serum SARS-green to looped/cyclic peptides of protein N of SARS-CoV Urbani: unit not given here
[2] = tested on: control sera (pooled serum of ten healthy LUMC hospital workers; commercial negative donor pooled serum from the Dutch bloodbank); format: binding, human; parameters: Binding of Control serum LUMC to linear peptides / Binding of Control serum Blood-bank to linear peptides / Binding of Control serum LUMC to looped peptides / Binding of Control Serum Blood-Bank to Looped peptides / Binding of Control serum LUMC to linear peptides of the protein M of SARS-CoV Urbani / Binding of Control serum Blood-bank to linear peptides of the protein M of SARS-CoV Urbani / Binding of Control serum LUMC to looped peptides of the protein M of SARS-CoV Urbani / Binding of Control Serum Blood-Bank to Looped peptides of the protein M of SARS-CoV Urbani: unit not given here
[3] = tested on: rabbit serum obtained by immunizing a rabbit with the SARS-CoV strain Frankfurt 1; format: binding; parameters: Binding of a rabbit serum to linear peptides / Binding of a rabbit serum to looped peptides / Rabbit serum linear peptides / Rabbit serum looped peptides / Binding of a rabbit serum to linear peptides of protein N of SARS-CoV Urbani (Rabbit serum linear peptides) / Binding of a rabbit serum to looped/cyclic peptides of protein N of SARS-CoV Urbani (Rabbit serum looped peptides): unit not given here

## LKEPCPSGTYEGNSP
[1]
  Binding of serum 1a to linear peptides of protein X4 of SARS-CoV Urbani: 0.7
  Binding of serum 1a to looped/cyclic peptides of protein X4 of SARS-CoV Urbani: 0.6
  Binding of serum 1b to linear peptides of protein X4 of SARS-CoV Urbani: 0.4
  Binding of serum 1b to looped/cyclic peptides of protein X4 of SARS-CoV Urbani: 0.5
  Binding of serum 2 to linear peptides of protein X4 of SARS-CoV Urbani: 0.4
  Binding of serum 2 to looped/cyclic peptides of protein X4 of SARS-CoV Urbani: 0.5
  Binding of serum 6 to linear peptides of protein X4 of SARS-CoV Urbani: 0.3
  Binding of serum 6 to looped/cyclic peptides of protein X4 of SARS-CoV Urbani: 0.3
  Binding of serum 37 to linear peptides of protein X4 of SARS-CoV Urbani: 0.6
  Binding of serum 37 to looped/cyclic peptides of protein X4 of SARS-CoV Urbani: 0.5
  Binding of serum 62 to linear peptides of protein X4 of SARS-CoV Urbani: 0.7
  Binding of serum 62 to looped/cyclic peptides of protein X4 of SARS-CoV Urbani: 0.6
  Binding of serum London to linear peptides of protein X4 of SARS-CoV Urbani: 0.9
  Binding of serum London to looped/cyclic peptides of protein X4 of SARS-CoV Urbani: 0.3
  Binding of serum SARS-green to linear peptides of protein X4 of SARS-CoV Urbani: 0.5
  Binding of serum SARS-green to looped/cyclic peptides of protein X4 of SARS-CoV Urbani: 0.6
  Binding of serum SARS-yellow to linear peptides of protein X4 of SARS-CoV Urbani: 0.2
  Binding of serum SARS-yellow to looped/cyclic peptides of protein X4 of SARS-CoV Urbani: 0.2
[2]
  Binding of Control Serum Blood-Bank to Looped peptides: 0.5
  Binding of Control serum Blood-bank to linear peptides: 0.6
  Binding of Control serum LUMC to linear peptides: 0.3
  Binding of Control serum LUMC to looped peptides: 0.7
[3]
  Rabbit serum linear peptides: 0.4
  Rabbit serum looped peptides: 0.0

## CIPYNSVTDTIVVTE
[1]
  Binding of serum 1a to linear peptides of protein X1 of SARS-CoV Urbani: 0.7
  Binding of serum 1b to linear peptides of protein X1 of SARS-CoV Urbani: 0.6
  Binding of serum 1b to looped/cyclic peptides of protein X1 of SARS-CoV Urbani: 0.4
  Binding of serum 2 to linear peptides of protein X1 of SARS-CoV Urbani: 0.5
  Binding of serum 2 to looped/cyclic peptides of protein X1 of SARS-CoV Urbani: 0.5
  Binding of serum 6 to linear peptides of protein X1 of SARS-CoV Urbani: 0.5
  Binding of serum 6 to looped/cyclic peptides of protein X1 of SARS-CoV Urbani: 0.2
  Binding of serum 37 to linear peptides of protein X1 of SARS-CoV Urbani: 0.7
  Binding of serum 37 to looped/cyclic peptides of protein X1 of SARS-CoV Urbani: 0.6
  Binding of serum 62 to linear peptides of protein X1 of SARS-CoV Urbani: 0.6
  Binding of serum 62 to looped/cyclic peptides of protein X1 of SARS-CoV Urbani: 0.5
  Binding of serum London to linear peptides of protein X1 of SARS-CoV Urbani: 0.3
  Binding of serum London to looped/cyclic peptides of protein X1 of SARS-CoV Urbani: 0.2
  Binding of serum SARS-green to linear peptides of protein X1 of SARS-CoV Urbani: 0.3
  Binding of serum SARS-green to looped/cyclic peptides of protein X1 of SARS-CoV Urbani: 0.3
  Binding of serum SARS-yellow to linear peptides of protein X1 of SARS-CoV Urbani: 0.5
  Binding of serum SARS-yellow to looped/cyclic peptides of protein X1 of SARS-CoV Urbani: 0.4
[2]
  Binding of Control Serum Blood-Bank to Looped peptides: 0.6
  Binding of Control serum Blood-bank to linear peptides: 0.5
  Binding of Control serum LUMC to linear peptides: 0.6
  Binding of Control serum LUMC to looped peptides: 0.5
[3]
  Binding of a rabbit serum to linear peptides: 0.1
  Binding of a rabbit serum to looped peptides: 0.4

## AAYNRYRIGNYKLNT
[1]
  Binding of serum 1a to linear peptides of protein M of SARS-CoV Urbani: 0.7
  Binding of serum 1a to looped/cyclic peptides of protein M of SARS-CoV Urbani: 0.7
  Binding of serum 1b to linear peptides of protein M of SARS-CoV Urbani: 0.5
  Binding of serum 1b to looped/cyclic peptides of protein M of SARS-CoV Urbani: 0.5
  Binding of serum 2 to linear peptides of protein M of SARS-CoV Urbani: 0.7
  Binding of serum 2 to looped/cyclic peptides of protein M of SARS-CoV Urbani: 0.8
  Binding of serum 6 to linear peptides of protein M of SARS-CoV Urbani: 0.8
  Binding of serum 6 to looped/cyclic peptides of protein M of SARS-CoV Urbani: 1.3
  Binding of serum 37 to linear peptides of protein M of SARS-CoV Urbani: 0.6
  Binding of serum 37 to looped/cyclic peptides of protein M of SARS-CoV Urbani: 0.5
  Binding of serum 62 to linear peptides of protein M of SARS-CoV Urbani: 0.5
  Binding of serum 62 to looped/cyclic peptides of protein M of SARS-CoV Urbani: 0.7
  Binding of serum London to linear peptides of protein M of SARS-CoV Urbani: 0.4
  Binding of serum London to looped/cyclic peptides of protein M of SARS-CoV Urbani: 0.5
  Binding of serum SARS-green to linear peptides of protein M of SARS-CoV Urbani: 0.5
  Binding of serum SARS-green to looped/cyclic peptides of protein M of SARS-CoV Urbani: 0.3
  Binding of serum SARS-yellow to linear peptides of protein M of SARS-CoV Urbani: 0.2
  Binding of serum SARS-yellow to looped/cyclic peptides of protein M of SARS-CoV Urbani: 0.7
[2]
  Binding of Control Serum Blood-Bank to Looped peptides of the protein M of SARS-CoV Urbani: 0.8
  Binding of Control serum Blood-bank to linear peptides of the protein M of SARS-CoV Urbani: 0.9
  Binding of Control serum LUMC to linear peptides of the protein M of SARS-CoV Urbani: 0.8
  Binding of Control serum LUMC to looped peptides of the protein M of SARS-CoV Urbani: 0.7
[3]
  Rabbit serum linear peptides: 0.4
  Rabbit serum looped peptides: 0.6

## WKCKSKNPLLYDANY
[1]
  Binding of serum 1a to linear peptides of protein X1 of SARS-CoV Urbani: 0.8
  Binding of serum 1a to looped/cyclic peptide (PEPSCAN-ELISA): 0.6
  Binding of serum 1b to linear peptides of protein X1 of SARS-CoV Urbani: 0.8
  Binding of serum 1b to looped/cyclic peptide (PEPSCAN-ELISA): 0.5
  Binding of serum 2 to linear peptides of protein X1 of SARS-CoV Urbani: 0.6
  Binding of serum 2 to looped/cyclic peptide (PEPSCAN-ELISA): 0.4
  Binding of serum 6 to linear peptides of protein X1 of SARS-CoV Urbani: 0.7
  Binding of serum 6 to looped/cyclic peptide (PEPSCAN-ELISA): 0.3
  Binding of serum 37 to linear peptides of protein X1 of SARS-CoV Urbani: 0.8
  Binding of serum 37 to looped/cyclic peptide (PEPSCAN-ELISA): 0.6
  Binding of serum 62 to linear peptides of protein X1 of SARS-CoV Urbani: 0.7
  Binding of serum 62 to looped/cyclic peptide (PEPSCAN-ELISA): 0.6
  Binding of serum London to linear peptides of protein X1 of SARS-CoV Urbani: 0.3
  Binding of serum London to looped/cyclic peptide (PEPSCAN-ELISA): 0.2
  Binding of serum SARS-green to linear peptides of protein X1 of SARS-CoV Urbani: 0.4
  Binding of serum SARS-green to looped/cyclic peptide (PEPSCAN-ELISA): 0.3
  Binding of serum SARS-yellow to linear peptides of protein X1 of SARS-CoV Urbani: 0.5
  Binding of serum SARS-yellow to looped/cyclic peptide (PEPSCAN-ELISA): 0.5
[2]
  Binding of Control Serum Blood-Bank to Looped peptides: 0.6
  Binding of Control serum Blood-bank to linear peptides: 0.7
  Binding of Control serum LUMC to linear peptides: 0.8
  Binding of Control serum LUMC to looped peptides: 0.5
[3]
  Binding of a rabbit serum to linear peptides: 0.1
  Binding of a rabbit serum to looped peptides: 0.6

## GGALIARCWYLHEGH
[1]
  Binding of serum 1a to linear peptides of protein X5 of SARS-CoV Urbani: 0.8
  Binding of serum 1a to looped/cyclic peptides of protein X5 of SARS-CoV Urbani: 0.7
  Binding of serum 1b to linear peptides of protein X5 of SARS-CoV Urbani: 0.7
  Binding of serum 1b to looped/cyclic peptides of protein X5 of SARS-CoV Urbani: 0.6
  Binding of serum 2 to linear peptides of protein X5 of SARS-CoV Urbani: 0.6
  Binding of serum 2 to looped/cyclic peptides of protein X5 of SARS-CoV Urbani: 0.6
  Binding of serum 6 to linear peptides of protein X5 of SARS-CoV Urbani: 0.8
  Binding of serum 6 to looped/cyclic peptides of protein X5 of SARS-CoV Urbani: 0.4
  Binding of serum 37 to linear peptides of protein X5 of SARS-CoV Urbani: 0.7
  Binding of serum 37 to looped/cyclic peptides of protein X5 of SARS-CoV Urbani: 0.7
  Binding of serum 62 to linear peptides of protein X5 of SARS-CoV Urbani: 0.8
  Binding of serum 62 to looped/cyclic peptides of protein X5 of SARS-CoV Urbani: 0.7
  Binding of serum London to linear peptides of protein X5 of SARS-CoV Urbani: 0.7
  Binding of serum London to looped/cyclic peptides of protein X5 of SARS-CoV Urbani: 0.3
  Binding of serum SARS-green to linear peptides of protein X5 of SARS-CoV Urbani: 0.7
  Binding of serum SARS-green to looped/cyclic peptides of protein X5 of SARS-CoV Urbani: 0.7
  Binding of serum SARS-yellow to linear peptides of protein X5 of SARS-CoV Urbani: 0.3
  Binding of serum SARS-yellow to looped/cyclic peptides of protein X5 of SARS-CoV Urbani: 0.3
[2]
  Binding of Control Serum Blood-Bank to Looped peptides: 0.6
  Binding of Control serum Blood-bank to linear peptides: 0.5
  Binding of Control serum LUMC to linear peptides: 0.4
  Binding of Control serum LUMC to looped peptides: 0.6
[3]
  Rabbit serum linear peptides: 0.5
  Rabbit serum looped peptides: 0.5

From patent US20070128217A1 (priority 2003, published 2007)
